From paper PMC11763264, “Antibacterial and Antifungal Activities of Linear and Cyclic Peptides Containing Arginine, Tryptophan, and Diphenylalanine” (Antibiotics, 2025) come the findings set out here.

≈ marks a conversion by molar mass, not a printed value. Non-standard residues stand in square brackets, D forms with d. Residues, ends and D or L forms follow the SMILES beside them. Dip = N[C@H](C(=O)O)C(c1ccccc1)c1ccccc1

The test system of one experiment is E. faecium (ATCC 700221). Put plainly: microbe, parasite or virus in culture. Format: cell-based, Enterococcus faecium. Conditions: ATCC 700221, 24 h. On the procedure:
(§1) The antibacterial activity of all ten synthesized linear and cyclic peptides was evaluated against MRSA (ATCC BAA-1556), S. aureus (ATCC 29213), E. faecium (ATCC 700221), S. pneumoniae (ATCC 51938), E. faecalis (ATCC 29212), B. subtilis (ATCC-6633), K. pneumoniae (ATCC BAA-1705), P. aeruginosa (ATCC 27883), and E. coli (ATCC 25922). Meropenem and daptomycin were used as positive controls for this study. Certain peptides are marked as “NT” (not tested) against specific bacterial strains based on initial screening data. […] The MIC was determined by micro-broth dilution protocol, where the minimal concentrations were determined to be in wells with no visible bacterial growth.
(§2) All bacterial experiments were carried out in a laminar flow hood (Labconco, Kansas City, MO, USA). The bacterial strains were cultured following the guidelines set by the Clinical Laboratory Standards Institute (CLSI). Antibacterial assays were performed using a standard microtiter dilution method as described in previous studies. The minimum inhibitory concentration (MIC) refers to the lowest peptide concentration that inhibits bacterial growth in wells with no visible bacterial growth. MIC was determined by micro-broth dilution. Bacteria were cultured overnight in 6 mL of Luria Broth (LB). A stock solution of the peptide was prepared in water and DMSO, and a test compound solution with a concentration of 256 µg/mL was made in LB. Meropenem, with a solubility of 8 mg/mL, was prepared as a stock solution at 4 mg/500 µL. An aliquot of the overnight bacteria culture was diluted in normal saline (NS, 1 mL) until achieving a 0.5 McFarland turbidity (1.5 × 10^8 bacterial cell CFU/mL). A 0.5 McFarland compared solution (60 µL) was added to Mueller Hinton Broth (MH) 8940 µL to generate a 1/150 dilution. A 200 µL test compound solution was added to the first well of a 96-well plate, and the remaining wells (2–12) were filled with 100 µL of MH media using a multi-channel pipette from a sterile reservoir. A concentration of […] of the tested peptides was prepared from a stock solution of the samples for testing in Muller−Hinton broth MH media. Peptides stock solution was dissolved in 5% DMSO in water, and the final concentration of DMSO in the first well of assay plate was 2.5% DMSO/H2O and diluted across the assay plate.
(§3) A 100 µL sample from well 1 was pipetted into well 2, and the solution was mixed thoroughly by pipetting up and down. Next, 100 µL was transferred from well 2 to well 3, followed by thorough mixing. This 2-fold serial dilution process continued through well 11, with no additions made to well 12. The final 100 µL from well 11 was discarded. After completing the serial dilution, each well (1–12) contained 100 µL of solution. The bacterial culture in MH media was vortexed and transferred to a sterile reservoir, from which 100 µL was added to each well using a 12-channel pipette. (Note: The dilutions were further diluted upon adding the bacterial solution; for example, the concentration in well 1 started at […] after the addition of the bacterial culture.) The plates were incubated overnight at 37 °C for 24 h. All experiments were performed in triplicate and repeated twice, with controls consisting of bacteria in MH media and positive controls of daptomycin or meropenem.

The test system of experiment [1] is Gram-positive and Gram-negative bacteria strains. Format: cell-based. Particulars: span over all bacterial strains tested; micro-broth dilution. On the procedure:
as §1
(§4) All bacterial experiments were carried out in a laminar flow hood (Labconco, Kansas City, MO, USA). The bacterial strains were cultured following the guidelines set by the Clinical Laboratory Standards Institute (CLSI). Antibacterial assays were performed using a standard microtiter dilution method as described in previous studies. The minimum inhibitory concentration (MIC) refers to the lowest peptide concentration that inhibits bacterial growth in wells with no visible bacterial growth. MIC was determined by micro-broth dilution. Bacteria were cultured overnight in 6 mL of Luria Broth (LB). […]
(Dilution methods test growth across graded concentrations, often in twofold steps.)

Experiment [2] concerns Gram-positive bacteria strains: MRSA, S. aureus, E. faecium, E. faecalis, S. pneumoniae, and B. subtilis. It is filed as cell-based. Particulars: span over MRSA, micro-broth dilution. On the procedure: as §1, §4
A further experiment has as its system E. faecalis (ATCC 29212). Nature of the experiment: microbe, parasite or virus in culture. Format: cell-based, Enterococcus faecalis. Particulars: ATCC 29212, 24 h. Here is the method: as §1, §2, §3
In a further experiment the test system is B. subtilis (ATCC-6633). Put plainly: microbe, parasite or virus in culture. It is filed as cell-based, Bacillus subtilis. Conditions: ATCC-6633, 24 h. On the procedure:
as §1, §2, §3

As for `N=C(N)NCCC[C@@H]1NC(=O)[C@H](C(c2ccccc2)c2ccccc2)NC(=O)[C@H](CCCNC(=N)N)NC(=O)[C@H](C(c2ccccc2)c2ccccc2)NC(=O)[C@H](CCCNC(=N)N)NC(=O)[C@H](C(c2ccccc2)c2ccccc2)NC(=O)[C@H](CCCNC(=N)N)NC(=O)[C@H](C(c2ccccc2)c2ccccc2)NC(=O)[C@H](CCCNC(=N)N)NC(=O)[C@H](C(c2ccccc2)c2ccccc2)NC1=O` [[DipR]5] (cyclo([Dip]R[Dip]R[Dip]R[Dip]R[Dip]R)), the MIC against E. faecium (ATCC 700221) was determined as 0.78 µM (≈ 1.48 µg/mL); in the experiment on E. faecalis (ATCC 29212), 0.78 µM (≈ 1.48 µg/mL); in the experiment with B. subtilis (ATCC-6633), 6.3 µM (≈ 12 µg/mL). Besides, in experiment [1], the “MIC values against Gram-positive and Gram-negative bacteria strains” value was 0.39 to 25 µM. The “MIC values against Gram-positive bacteria strains” value in experiment [2] fell in the range of 0.39 to 6.3 µM.
